# From ChEMBL document CHEMBL1144834, “Acremolides A-D, lipodepsipeptides from an Australian marine-derived fungus, Acremonium sp” (2008)
# The source made the active and inactive calls. The calls are words filed in the database; no cut-off is given here.
# How the values were obtained:
# [1] = system: NS1; experiment: (§1) Cytotoxicity against mouse NS1 cells; format: functional
# [2] = system: Bacillus subtilis; experiment: Antibacterial activity against Bacillus subtilis; format: functional, organism-based
# [3] = system: Candida albicans; experiment: Antifungal activity against Candida albicans; format: functional, organism-based
# [4] = as §1; format: functional
Compound,Activity [1],Activity [2],Activity [3],LD99 [4] [µg/mL]
CC[C@@H](C)[C@H]1NC(=O)C(C)C(O)CC(C(C)CCCCC(C)O)OC(=O)[C@@H]2CCCN2C1=O (stereo not given in full),inactive,inactive,inactive,–
C=C1[C@@H](C)[C@H]2[C@H](Cc3c[nH]c4ccccc34)NC(=O)[C@]23C(=O)/C=C/C(=O)[C@H](OC(C)=O)/C(C)=C\[C@@H](C)C/C=C/[C@H]3[C@@H]1O,–,–,–,0.8
CC(=O)O[C@H]1C(=O)/C=C/C(=O)[C@@]23C(=O)N[C@@H](Cc4c[nH]c5ccccc45)[C@@H]2C(C)=C(C)[C@@H](O)[C@@H]3/C=C/C[C@H](C)/C=C\1C [19-O-ACETYLCHAETOGLOBOSIN B],–,–,–,1.6
C/C=C/c1cccc(O)c1CO,inactive,–,–,–
CC(O)CCCCC(C)C1CC(O)C(C)C(=O)N[C@H](C(C)C)C(=O)N2CCC[C@H]2C(=O)O1 (stereo not given in full),inactive,inactive,inactive,–
CC(=O)CCCCC(C)C1CC(O)C(C)C(=O)N[C@H](Cc2ccccc2)C(=O)N2CCC[C@H]2C(=O)O1 (stereo not given in full),inactive,inactive,inactive,–
CC(O)CCCCC(C)C1CC(O)C(C)C(=O)N[C@H](Cc2ccccc2)C(=O)N2CCC[C@H]2C(=O)O1 (stereo not given in full),inactive,inactive,inactive,–
